Earlier results on 5 molecules are cited in patent US20210121528A1, “COMPOSITIONS FOR TREATING LUNG INFECTIONS BY AIRWAY ADMINISTRATION” (priority 2014, published 2021).

Read-outs that look alike come from different tables or passages of the source.

Test in data set [1]: not given
The source holds these as a separate data set.

For data set [2] the following is noted: in vivo, po.
Test in data set [3]: not given
This is another data set of the same source.

Data set [4] has as its system lethal pneumococcal pneumonia. Particulars: local delivery, mice.
Data set [5] deals with macrophages. Particulars: in vitro incubation.
Data set [6] deals with strains of organisms from the susceptible genera.
In data set [7] the test system is Staphylococcus, Streptococcus, Neisseria, Escherichia, Proteus (indole-negative), Serratia, Salmonella, Shigella, Pseudomonas, Haemophilus, Vibrio, and …. Particulars: aerobic genera.
Data set [8] concerns Moraxella catarrhalis, Burkholderia cepacia, Mycobacterium spp. and Stenotrophomonas maltophilia.
Data set [9] deals with Veillonella and Fusobacterium. Particulars: anaerobic genera.
The subject of data set [10] is Prevotella. To be noted: anaerobic genus.
The subject of data set [11] is methicillin-resistant Staphylococcus aureus and extended spectrum 13-lactamase (ESBL) enterobacteria. Particulars: resistant bacteria.
For data set [12] the following is noted: human, in vivo.
Data set [13] concerns mammalian cells and organs.
Data set [14] concerns polymorphonuclear leukocytes.

Consider `C[C@@H]1O[C@@H]1P(=O)(O)O.NC(CO)(CO)CO` [Fosfomycin trometamol], for which the “pH of 5% solution” value was 3.5-5.5. In addition, the solubility in water entry in [1] is listed as “highly soluble”. Moreover, the bioavailability result in [2] is given as “about 40%”. Moreover, the “irritation of the stomach / oral tolerability” value in data set [3] (oral) was “well tolerated”.
With “GM-CSF: Monomeric protein of 127 amino-acid residues, colony-stimulating factor; SEQ ID NO: 2 mature human form”, the “protection from lethal pneumococcal pneumonia” value in data set [4] is given as “protects”. Also, the “time for transformation of a resting macrophage into a fully immunocompetent dendritic cell” value in [5] is given as “approximately 10 days”.
Turning to `C[C@@H]1O[C@@H]1P(=O)(O)O` [fosfomycin, [(2R,3S)-3-methyloxiran-2-yl]phosphonic acid], the “synergistic effect, share of tested strains” value in data set [6] (early studies, various antibiotic combinations) is listed as 70-100%. Moreover, in [6] (subsequent more extensive studies), the synergy rates is 36-74%. The bactericidal activity result is on record as “active” in data set [7]; “less active” in data set [8]; “active” in data set [9]; “moderately active” in data set [10]; “active” in data set [11]. Also, the eosinophilia in data set [12] is 0.2%. In addition, in [12], the transient rashes is 0.3 % of cases. Moreover, the “transiently raised liver enzymes” value in data set [12] was 0.3 % of cases. In data set [13], the “toxicity to mammalian cells and organs” value is “remarkably non-toxic”. Further, the “concentration in polymorphonuclear leukocytes relative to the extracellular fluid” value in data set [14] is “twice”.
As to `C[C@@H]1O[C@@H]1P(=O)(O)O` [Fosfomycin calcium monohydrate], the “pH of 0.4% solution” value (0.4% solution) is listed as 8.1-9.6. For the same molecule, the solubility in water result in data set [1] was “sparingly soluble”. The “irritation of the stomach / oral tolerability” value in [3] (in vivo, po) is “less irritating to the stomach”.
In the case of `C[C@@H]1O[C@@H]1P(=O)(O)O` [Fosfomycin disodium], the “pH of 5% solution” value was 9.0-10.5. The solubility in water result in data set [1] is recorded as “highly soluble”. Moreover, in data set [3] (in vivo, po), the “irritation of the stomach / oral tolerability” value is reported as “irritant to the stomach”.
